Read-outs that look alike come from different tables or passages of the source.

The nature of series [1]: Static thermostability of stabilized polyvinyl chloride resin, GARDNER Scale comparator, 185° C. The conditions noted are these: 185° C. and 210° C. trials, in words. As to the method:
The stabilizing power of the substances of the invention was studied by determining the static thermostability of the following resin: […]
Polyvinyl chloride resin
Calcium-12-hydroxy-stearate
Stabilizer from 0.1 to 1
SL 2016 represents a solution of zinc-2-ethyl-hexanoate in a mixture of aromatic hydrocarbons boiling between 158° and 184° C.
The different ingredients were mixed and calendered in a mixer of which the cylinders were heated to 160° C.
The rigid sheets so obtained were then heated in a oven to a temperature of 185° or 210° C., until incipient carbonization.
A oven with a rotating drum, ventilated and equipped with a thermostat was used for this operation.
In the trials described hereunder the behaviour of the sheets containing one of the stabilizers to be tested was compared to that of sheets of the same formula but containing 2-phenyl-indole as stabilizer.
Comparison can be made by one of two methods, namely:
(1) The coloration of the sheets, of which samples were removed from the oven at fixed intervals, was compared to a standard scale of coloration, known as the GARDNER Scale, and expressed in terms of the reference figures of the GARDNER Scale.
Comparisons were made with a GARDNER Scale comparator which contains 18 filters of colored glass and which offers the possibility of observing simultaneously by transparency and in a limited field of view both the sheet and the reference filters.
It may happen that the color of the sheets is far removed from that of the GARDNER Scale, in which case comparison is difficult, if not impossible.
The following results were obtained at a temperature of 185° C., using the method described above: […]

Series [2] in a line: Acute toxicity (LD50 / LDO), oral route, mice. The conditions noted are these: mouse, in vivo. The class given is in vivo. The procedure:
(§1) The toxicity of the stabilizers of the invention was studied first and the satisfactory results obtained were such as to justify continuation of the investigation.
(§2) The acute toxicity (LD50) of the stabilizers listed below was measured by determining the dose of substance which provoked the death of 50% of the animals treated.
(§3) A gummy suspension of the substance under study was administered by oral route to groups of at least ten mice and the following results were observed: […]

The subject of series [3] is mice. The experiment in a line: Acute toxicity (LD50 / LDO), oral route, mice. The class given is in vivo. As to the method: as §1, §2, §3
For series [4], the system named is mice. The following applies: known stabilizer, in words; cited from earlier work.
For series [5] the following is noted: known stabilizer, in words; cited from earlier work.
For series [6] the following is noted: water; for Extractibility compared with 2-phenyl-indole: in words.
Method: This study was carried out in accordance with the requirements of the Food and Drug Administration (U.S.A.).
The extractions were performed in semi-rigid bottles, prepared with the resin of which the composition is given below, and with the following solvents: water, ethanol-water 50/50, an aqueous solution of acetic acid (3%) and finally heptane.
The ratio of the volume of solvent to the surface of plastic material exposed to extraction was about 1 to 100ml of solvent, taking into account the geometric characteristics of the bottles.
Heating A thermostated oven for the non-inflammable
solvents (water and acetic acid).
A thermostated water-bath for the inflammable
solvents (alcohol and heptane).
The quantity of stabilizer extracted was determined by colorimetric assay using p-dimethylaminobenzaldehyde, in accordance with the method described in Analytical Chemistry 36,425-26 (1964).
Results are expressed in μg of stabilizer extracted per litre of extraction solvent or, which is the same per 1000cm^2 of surface extracted.

Regarding `COc1cc(-c2cc3cc(C)ccc3[nH]2)ccc1O` [Stabilizer 15, 2(3'-methoxy-4'-hydroxy-phenyl)-5-methyl-indole], in series [1], the “Stabilizing power compared with 2-phenyl-indole” value is recorded as “superior to 2-phenyl-indole”. In the case of `CCCCCCCCCCCCOc1ccc(-c2cc3ccc(C)cc3[nH]2)cc1` [Stabilizer 12], the 50% lethal dose (LD50) in series [2] is greater than 3000 mg/kg. For the same compound, in the series on mice [3] (LD50 table), the Toxic symptoms result was “none”. As to `c1ccc(-c2cc3ccccc3[nH]2)cc1` [2-phenyl-indole], the Toxicity entry in the series with mice [4] is recorded as “low toxicity”. Besides, the Stabilizing power result in series [5] is listed as “good stabilizing power”.

Regarding `CCCCCCCCCCCCOc1ccc(-c2cc3ccc(C)cc3[nH]2)cc1` [Stabilizer 12, 2-(4'-dodecyloxy-phenyl)-6-methyl-indole], the “Extractibility compared with 2-phenyl-indole” value in series [6] (aqueous ethanol and heptane) was “markedly less extractible than 2-phenyl-indole”. Besides, in series [1], the “Stabilizing power compared with 2-phenyl-indole” value is listed as “superior to 2-phenyl-indole”.

With `COc1cc(-c2cc3cccc(C)c3[nH]2)ccc1O` [Stabilizer 8, 2-(3'-methoxy-4'-hydroxy-phenyl)-7-methyl-indole], in series [1], the “Stabilizing power compared with 2-phenyl-indole” value was “superior to 2-phenyl-indole”. Consider `CCCCCCCCCCCCOc1ccc(-c2cc3cccc(C)c3[nH]2)cc1C` [Stabilizer 14, 2-(3'-methyl-4'-dodecyloxy-phenyl)-7-methyl-indole], for which the “Extractibility compared with 2-phenyl-indole” value in series [6] (aqueous ethanol and heptane) is reported as “markedly less extractible than 2-phenyl-indole”. Consider `Oc1ccc2cc(-c3ccccc3)[nH]c2c1` [Stabilizer 2, 2-phenyl-6-hydroxy-indole], for which, in series [6], the “Extractibility, times less than 2-phenyl-indole” value is listed as “at least 10 times” and the “Extractibility compared with 2-phenyl-indole” value was “markedly superior to 2-phenyl-indole”. Besides, the “Stabilizing power compared with 2-phenyl-indole” value in series [1] is listed as “superior to 2-phenyl-indole”. In the case of `COc1cc(-c2cc3ccc(C)cc3[nH]2)ccc1O` [Stabilizer 13, 2(3'-methoxy-4'-hydroxy-phenyl)6-methyl-indole], in series [1], the “Stabilizing power compared with 2-phenyl-indole” value is reported as “superior to 2-phenyl-indole”.

For `Oc1ccc2[nH]c(-c3ccccc3)cc2c1` [Stabilizer 19], the “LDO (maximal dose which does not provoke any death)” value in the series with mice [3] is greater than 500 mg/kg. In the series on mice [3] (LDO table), the Toxic symptoms result is recorded as “none”. On to `CCCCCCCCCCCCOc1ccc2[nH]c(-c3ccccc3)cc2c1` [Stabilizer 3, 2-phenyl-5-dodecyloxy-indole], for which, in series [6] (aqueous ethanol and heptane), the “Extractibility compared with 2-phenyl-indole” value is listed as “markedly less extractible than 2-phenyl-indole”. For the same compound, the “Stabilizing power compared with 2-phenyl-indole” value in series [1] was “superior to 2-phenyl-indole”. This compound returned an LD50 in series [2] greater than 5000 mg/kg. The Toxic symptoms result in the series on mice [3] (LD50 table) is on record as “none”. As for `COc1ccc(-c2cc3cccc(C)c3[nH]2)cc1` [Stabilizer 5, 2-(4'-methoxy-phenyl)-7-methyl-indole], in series [1], the “Stabilizing power compared with 2-phenyl-indole” value is listed as “superior to 2-phenyl-indole”. For the compound `Oc1ccc2[nH]c(-c3ccccc3)cc2c1` [Stabilizer 19, 2-phenyl-5-hydroxy-indole], the “Stabilizing power compared with 2-phenyl-indole” value in series [1] is listed as “superior to 2-phenyl-indole”. As for `COc1ccc(-c2cc3cc(C)ccc3[nH]2)cc1` [Stabilizer 4, 2-(4'-methoxy-phenyl)-5-methyl-indole], the “Stabilizing power compared with 2-phenyl-indole” value in series [1] is listed as “superior to 2-phenyl-indole”. The “LDO (maximal dose which does not provoke any death)” value in the series with mice [3] is given as greater than 500 mg/kg. Besides, in the series on mice [3] (LDO table), the Toxic symptoms entry was “none”. With `COc1ccc(-c2cc3ccc(C)cc3[nH]2)cc1` [Stabilizer 6, 2-(4'-methoxy-phenyl)-6-methyl-indole], in series [1], the “Stabilizing power compared with 2-phenyl-indole” value is reported as “superior to 2-phenyl-indole”. Moreover, in series [2], the LD50 is greater than 3000 mg/kg. In the series on mice [3] (LD50 table), the Toxic symptoms entry is “none”.

In the case of `COc1ccc2cc(-c3ccccc3)[nH]c2c1` [Stabilizer 1, 2-phenyl-6-methoxy-indole], the “Stabilizing power compared with 2-phenyl-indole” value in series [1] is recorded as “superior to 2-phenyl-indole”.

As usually defined, the LD50 is the dose expected to kill half of the subjects tested. Lower therefore signals greater toxicity.

Source of the values: patent US4113736A, “2-Phenyl-indole derivatives” (priority 1975, dated 1978).
